Assay results from ChEMBL document CHEMBL5131502, “Improving the treatment of Parkinson's disease: Structure-based development of novel 5-HT2A receptor antagonists/inverse agonists” (Eur J Med Chem, 2022).
≈ marks a conversion by molar mass, not a printed value. Calls of active or inactive are those of the source. No cut-off for these calls is given here.

Legend:
[1] = target: T1, 5-hydroxytryptamine receptor 2A (Homo sapiens, UniProt P28223); assay: Inverse agonist activity at 5-HT2A receptor (unknown origin) expressed in mouse NIH3T3 cells using o-nitrophenyl-D-galacto pyranoside incubated for 120 hrs; format: functional, cell-based
T1 sequence (P28223 whole entry): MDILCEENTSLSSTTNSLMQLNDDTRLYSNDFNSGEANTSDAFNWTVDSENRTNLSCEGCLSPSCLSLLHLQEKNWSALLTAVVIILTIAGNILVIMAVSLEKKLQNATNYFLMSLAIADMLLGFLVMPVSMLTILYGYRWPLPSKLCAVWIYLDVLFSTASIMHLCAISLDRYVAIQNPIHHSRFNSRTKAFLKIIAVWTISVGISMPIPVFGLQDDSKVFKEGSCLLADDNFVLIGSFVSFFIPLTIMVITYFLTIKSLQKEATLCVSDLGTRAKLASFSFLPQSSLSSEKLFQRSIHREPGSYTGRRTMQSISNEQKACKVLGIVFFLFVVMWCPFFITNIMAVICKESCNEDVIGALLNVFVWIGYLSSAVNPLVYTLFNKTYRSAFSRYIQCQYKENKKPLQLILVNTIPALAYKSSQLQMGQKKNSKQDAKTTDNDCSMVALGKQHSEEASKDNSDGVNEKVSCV

[2] = target: T1, 5-hydroxytryptamine receptor 2A; assay: Antagonist activity at 5-HT2A receptor (unknown origin) expressed in CHO-K1 cells assessed as reduction in intracellular Ca2+ mobilization incubated for 15 mins by FLIPR assay; format: functional, cell-based
Rattus norvegicus = assay: Antiparkinson's activity in rat assessed as reduction of DOI-induced head-twitching at 6 micromol/kg, IG measured after 1 hr; format: functional, organism-based; conditions: dose 6.0 µmol/kg
[3] = Metabolic stability in Sprague-Dawley rat liver microsomes assessed as compound remaining at 100 uM […] followed by NADPH addition by LC/MS analysis; format: ADME, Microsome; conditions: read-out: Stability
[4] = Metabolic stability in Sprague-Dawley rat liver microsomes assessed as half life at 100 uM preincubated for 10 mins followed by NADPH addition by LC/MS analysis; format: ADME, Microsome
[5] = Metabolic stability in human liver microsomes assessed as half life at 100 uM preincubated for 10 mins followed by NADPH addition by LC/MS analysis; format: ADME, Microsome
[6] = Metabolic stability in Sprague-Dawley rat liver microsomes assessed as intrinsic clearance at 100 uM preincubated for 10 mins followed by NADPH addition by LC/MS analysis; format: ADME, Microsome; conditions: read-out: CLH
[7] = Metabolic stability in human liver microsomes assessed as intrinsic clearance at 100 uM preincubated for 10 mins followed by NADPH addition by LC/MS analysis; format: ADME, Microsome; conditions: read-out: CLH
[8] = Metabolic stability in human liver microsomes assessed as compound remaining at 100 uM […] followed by NADPH addition by LC/MS analysis; format: ADME, Microsome; conditions: read-out: Stability
[9] = Plasma protein binding in monkey at 10 uM; format: ADME, cell-free, Macaca mulatta; conditions: rhesus monkey, read-out: PPB (converted)
[10] = Plasma protein binding in human at 10 uM; format: ADME, cell-free; conditions: read-out: PPB (converted)
Cytochrome P450 2D6 = Cytochrome P450 2D6 (Homo sapiens, UniProt P10635); assay: Inhibition of CYP2D6 (unknown origin); format: ADME
Sequence of Cytochrome P450 2D6 (P10635 whole entry): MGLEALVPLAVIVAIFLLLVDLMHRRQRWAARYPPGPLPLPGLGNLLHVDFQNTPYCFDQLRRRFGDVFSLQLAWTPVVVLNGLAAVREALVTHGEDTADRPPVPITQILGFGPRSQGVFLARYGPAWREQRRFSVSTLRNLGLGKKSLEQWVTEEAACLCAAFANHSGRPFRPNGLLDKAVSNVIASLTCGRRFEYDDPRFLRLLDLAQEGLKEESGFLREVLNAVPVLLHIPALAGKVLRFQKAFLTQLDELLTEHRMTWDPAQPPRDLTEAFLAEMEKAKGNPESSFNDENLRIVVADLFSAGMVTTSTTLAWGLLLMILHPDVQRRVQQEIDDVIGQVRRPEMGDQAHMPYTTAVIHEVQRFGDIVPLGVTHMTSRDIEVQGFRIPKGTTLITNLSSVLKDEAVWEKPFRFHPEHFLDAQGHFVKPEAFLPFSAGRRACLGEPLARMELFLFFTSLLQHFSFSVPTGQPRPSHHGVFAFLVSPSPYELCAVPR

[11] = Dissociation constant, pKa of the compound; format: physicochemical
[12] = Plasma protein binding in rat at 10 uM; format: ADME, cell-free; conditions: read-out: PPB (converted)
[13] = AUC(0 to 24 hrs) in mouse at 100 mg/kg by UHPLC/FT-ICR-MS analysis; format: ADME, organism-based; parameters: time < 24 hr, dose 100 mg/kg; conditions: in vivo
[14] = AUC(0 to 24 hrs) in rat at 100 mg/kg by UHPLC/FT-ICR-MS analysis; format: ADME, organism-based; parameters: time < 24 hr, dose 100 mg/kg; conditions: in vivo
[15] = AUC(0 to 24 hrs) in monkey at 100 mg/kg by UHPLC/FT-ICR-MS analysis; format: ADME, organism-based, Macaca mulatta; parameters: time < 24 hr, dose 100 mg/kg; conditions: rhesus monkey, in vivo
[16] = AUC(0 to 24 hrs) in human at 80 mg/kg/day by UHPLC/FT-ICR-MS analysis; format: ADME, organism-based; parameters: time < 24 hr, dose 80 mg/kg/day; conditions: in vivo
[17] = Drug metabolism in mouse assessed as AUC(0 to 24 hrs) for AC-279 metabolite at 100 mg/kg by UHPLC/FT-ICR-MS analysis; format: ADME, organism-based; parameters: time < 24 hr, dose 100 mg/kg; conditions: in vivo
[18] = Drug metabolism in rat assessed as AUC(0 to 24 hrs) for AC-279 metabolite at 100 mg/kg by UHPLC/FT-ICR-MS analysis; format: ADME, organism-based; parameters: time < 24 hr, dose 100 mg/kg; conditions: in vivo
[19] = Drug metabolism in monkey assessed as AUC(0 to 24 hrs) for AC-279 metabolite at 100 mg/kg by UHPLC/FT-ICR-MS analysis; format: ADME, organism-based, Macaca mulatta; parameters: time < 24 hr, dose 100 mg/kg; conditions: rhesus monkey, in vivo
[20] = Drug metabolism in human assessed as AUC(0 to 24 hrs) for AC-279 metabolite at 80 mg/kg/day by UHPLC/FT-ICR-MS analysis; format: ADME, organism-based; parameters: time < 24 hr, dose 80 mg/kg/day; conditions: in vivo
[21] = Drug metabolism in rat assessed as AUC(0 to 24 hrs) for AC- 423 metabolite at 100 mg/kg by UHPLC/FT-ICR-MS analysis; format: ADME, organism-based; parameters: time < 24 hr, dose 100 mg/kg; conditions: in vivo
[22] = Drug metabolism in monkey assessed as AUC(0 to 24 hrs) for AC- 423 metabolite at 100 mg/kg by UHPLC/FT-ICR-MS analysis; format: ADME, organism-based, Macaca mulatta; parameters: time < 24 hr, dose 100 mg/kg; conditions: rhesus monkey, in vivo
[23] = Drug metabolism in human assessed as AUC(0 to 24 hrs) for AC- 423 metabolite at 80 mg/kg/day by UHPLC/FT-ICR-MS analysis; format: ADME, organism-based; parameters: time < 24 hr, dose 80 mg/kg/day; conditions: in vivo
[24] = Drug metabolism in mouse assessed as AUC(0 to 24 hrs) for AC- 527 metabolite at 100 mg/kg by UHPLC/FT-ICR-MS analysis; format: ADME, organism-based; parameters: time < 24 hr, dose 100 mg/kg; conditions: in vivo
[25] = Drug metabolism in rat assessed as AUC(0 to 24 hrs) for AC- 527 metabolite at 100 mg/kg by UHPLC/FT-ICR-MS analysis; format: ADME, organism-based; parameters: time < 24 hr, dose 100 mg/kg; conditions: in vivo
[26] = Drug metabolism in monkey assessed as AUC(0 to 24 hrs) for AC- 527 metabolite at 100 mg/kg by UHPLC/FT-ICR-MS analysis; format: ADME, organism-based, Macaca mulatta; parameters: time < 24 hr, dose 100 mg/kg; conditions: rhesus monkey, in vivo
[27] = Drug metabolism in human assessed as AUC(0 to 24 hrs) for AC- 527 metabolite at 80 mg/kg/day by UHPLC/FT-ICR-MS analysis; format: ADME, organism-based; parameters: time < 24 hr, dose 80 mg/kg/day; conditions: in vivo
[28] = Lipophilicity, logD of the compound at pH 7.4; format: physicochemical; conditions: buffer
[29] = Aqueous solubility of compound at pH 7.4; format: physicochemical
[30] = Metabolic stability in dog liver microsomes assessed as compound remaining at 100 uM […] followed by NADPH addition by LC/MS analysis; format: ADME, Canis lupus familiaris, Microsome; conditions: read-out: Stability
Cytochrome P450 1A2 = target: T2, Cytochrome P450 1A2 (Homo sapiens, UniProt P05177); assay: Inhibition of CYP1A2 (unknown origin); format: ADME
T2 sequence (P05177 whole entry): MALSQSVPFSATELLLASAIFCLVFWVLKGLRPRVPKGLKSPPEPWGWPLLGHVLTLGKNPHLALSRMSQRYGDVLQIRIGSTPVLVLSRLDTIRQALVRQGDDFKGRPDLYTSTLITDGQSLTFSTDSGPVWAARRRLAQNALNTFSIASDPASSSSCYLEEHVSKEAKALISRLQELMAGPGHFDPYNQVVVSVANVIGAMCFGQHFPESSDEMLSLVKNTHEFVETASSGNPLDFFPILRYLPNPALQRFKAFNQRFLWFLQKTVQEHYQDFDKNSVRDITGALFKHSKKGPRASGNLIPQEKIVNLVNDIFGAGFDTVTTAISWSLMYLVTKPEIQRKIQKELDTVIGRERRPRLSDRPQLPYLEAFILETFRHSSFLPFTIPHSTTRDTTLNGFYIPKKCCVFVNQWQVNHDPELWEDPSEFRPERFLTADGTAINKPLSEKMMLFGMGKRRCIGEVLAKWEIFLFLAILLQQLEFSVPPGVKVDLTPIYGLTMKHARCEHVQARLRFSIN

Cytochrome P450 2C9 = Cytochrome P450 2C9 (Homo sapiens, UniProt P11712); assay: Inhibition of CYP2C9 (unknown origin); format: ADME
Sequence of Cytochrome P450 2C9 (P11712 whole entry): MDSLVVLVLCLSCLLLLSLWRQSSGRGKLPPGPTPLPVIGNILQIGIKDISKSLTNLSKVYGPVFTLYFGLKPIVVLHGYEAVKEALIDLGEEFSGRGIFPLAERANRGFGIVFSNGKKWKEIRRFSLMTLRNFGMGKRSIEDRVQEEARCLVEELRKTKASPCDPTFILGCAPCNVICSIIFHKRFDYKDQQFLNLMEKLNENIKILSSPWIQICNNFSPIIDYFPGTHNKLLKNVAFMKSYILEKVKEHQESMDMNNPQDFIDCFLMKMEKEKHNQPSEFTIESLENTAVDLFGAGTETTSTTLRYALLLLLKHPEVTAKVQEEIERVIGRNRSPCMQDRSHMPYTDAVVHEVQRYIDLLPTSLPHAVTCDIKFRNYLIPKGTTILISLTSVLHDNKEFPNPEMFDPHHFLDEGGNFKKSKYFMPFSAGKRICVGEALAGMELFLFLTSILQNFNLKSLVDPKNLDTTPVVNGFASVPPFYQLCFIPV

Cytochrome P450 2C19 = Cytochrome P450 2C19 (Homo sapiens, UniProt P33261); assay: Inhibition of CYP2C19 (unknown origin); format: ADME
Sequence of Cytochrome P450 2C19 (P33261 whole entry): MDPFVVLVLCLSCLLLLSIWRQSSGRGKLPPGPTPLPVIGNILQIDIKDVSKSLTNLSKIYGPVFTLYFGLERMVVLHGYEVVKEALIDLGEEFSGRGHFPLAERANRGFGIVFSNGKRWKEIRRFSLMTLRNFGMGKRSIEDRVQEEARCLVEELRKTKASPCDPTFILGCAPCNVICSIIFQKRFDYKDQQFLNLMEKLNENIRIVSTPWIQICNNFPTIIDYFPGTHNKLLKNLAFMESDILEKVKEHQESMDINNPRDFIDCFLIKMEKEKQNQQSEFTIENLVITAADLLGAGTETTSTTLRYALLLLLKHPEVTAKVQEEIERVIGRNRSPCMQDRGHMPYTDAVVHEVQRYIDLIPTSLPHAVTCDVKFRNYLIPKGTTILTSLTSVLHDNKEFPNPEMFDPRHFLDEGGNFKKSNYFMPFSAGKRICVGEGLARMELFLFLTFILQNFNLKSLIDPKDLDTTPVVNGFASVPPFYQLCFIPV

[31] = Drug distribution in Sprague-Dawley rat brain at 6 micromol/kg administered via gavage measured after 0.5 hr by LC-MS/MS analysis; format: ADME, tissue-based; conditions: in vivo, po, dose 6 µmol/kg
[32] = Drug distribution in Sprague-Dawley rat brain at 6 micromol/kg administered via gavage measured after 2 hrs by LC-MS/MS analysis; format: ADME, tissue-based; conditions: in vivo, po, dose 6 µmol/kg
[33] = Drug distribution in Sprague-Dawley rat brain at 6 micromol/kg administered via gavage measured after 6 hrs by LC-MS/MS analysis; format: ADME, tissue-based; conditions: in vivo, po, dose 6 µmol/kg

Compound: CN1CCC(N(Cc2ccc(F)cn2)C(=O)NCc2ccc3c(c2)CCC(C)(C)O3)CC1
- IC50 [1]: 127 nM

Compound: CN1CCC(N(Cc2ccc(F)cn2)C(=O)NCc2ccc(OCC(F)(F)F)c(Cl)c2)CC1
- IC50 [2]: 125 nM
- IC50 [1]: 134 nM

Compound: CN1CCC(N(Cc2ccc(F)cn2)C(=O)NCc2ccc(OC(F)(F)C(F)(F)F)cc2)CC1
- IC50 [2]: 33.4 nM

Compound: CC(C)COc1ccc(CNC(=O)N(Cc2ccc(F)cc2)C2CCC(N(C)C)C2)cc1 (stereo not given)
- IC50 [2]: 110 nM
- IC50 [1]: 101 nM

Compound: CC(C)COc1ccc(CNC(=O)N(Cc2ccc(F)cc2)C2CCN(C)CC2)cc1
- Activity (Rattus norvegicus): Active

Compound: CN1CCC(N(Cc2ccc(F)cn2)C(=O)NCc2ccc(OCCCF)cc2)CC1
- IC50 [2]: 1.93 nM
- remaining at 100 µM [3]: 80.4%
- IC50 [1]: 3.05 nM
- half-life at 100 µM [4]: > 3.1 h
- half-life at 100 µM [5]: > 3.1 h
- CLint scaled at 100 µM [6]: < 13.4 mL/min/kg
- CLint scaled at 100 µM [7]: < 6.7 mL/min/kg
- remaining at 100 µM [8]: 87.8%

Compound: CC(C)COc1ccc(CNC(=O)N(Cc2ccc(F)cc2)C2CCN(C)CC2)cc1 [PIMAVANSERIN]
- fraction unbound at 10 µM [9]: 0.053
- fraction unbound at 10 µM [10]: 0.045
- IC50 (Cytochrome P450 2D6): > 100000 nM
- remaining at 100 µM [3]: 68.5%
- pKa [11]: 8.44
- fraction unbound at 10 µM [12]: 0.037
- AUC(0-t) at 24 h [13]: 4460 ng·h/mL
- AUC(0-t) at 24 h [14]: 3250 ng·h/mL
- AUC(0-t) at 24 h [15]: 7730 ng·h/mL
- AUC at 24 h [16]: 836 ng·h/mL
- AUC [17]: 8210 ng·h/mL
- AUC [18]: 4320 ng·h/mL
- AUC [19]: 4800 ng·h/mL
- AUC [20]: 527 ng·h/mL
- AUC [21]: 18577 ng·h/mL
- AUC [22]: 2411 ng·h/mL
- AUC [23]: 112 ng·h/mL
- AUC [24]: 388 ng·h/mL
- AUC [25]: 1976 ng·h/mL
- AUC [26]: 1289 ng·h/mL
- AUC [27]: 236 ng·h/mL
- half-life at 100 µM [4]: 1.78 h
- half-life at 100 µM [5]: 1.96 h
- CLint scaled at 100 µM [6]: 23.2 mL/min/kg
- CLint scaled at 100 µM [7]: 11 mL/min/kg
- remaining at 100 µM [8]: 70.7%
- logD [28]: 2.78
- solubility [29]: 21 µg/mL (≈ 49.1 µM)
- remaining at 100 µM [30]: 29.7%
- IC50 (Cytochrome P450 1A2): 52000 nM
- IC50 (Cytochrome P450 2C9): > 100000 nM
- IC50 (Cytochrome P450 2C19): 49800 nM
- Ct [31]: 136 nmol/kg
- Ct [32]: 171 nmol/kg
- Ct [33]: 36 nmol/kg
